Measurements published in patent US20150166505A1, “PYRIDINYL-SUBSTITUTED PYRAZOLYL CARBOXAMIDES” (GRÜNENTHAL GMBH, priority 2013, published 2015).
Like-named read-outs stand apart in the source and are kept apart here.

Legend:
[1] = test system: Interleukin-2 (IL-2) production/release in Jurkat T cell line; test: Jurkat IL-2 Production Assay; type: cell-based; conditions: Homo sapiens; Jurkat T cells, PHA stimulation 22 hours
Procedure: Jurkat IL-2 Production Assay
The effect of compounds of the invention on Interleukin-2 (IL-2) production/release was tested in the Jurkat T cell line (ECACC) clone E6-1. Jurkat T cells were cultured in DMEM/F12/Glutamax (Gibco) containing 10% FCS (Gibco), and maintained at 37° C., 5% CO2. Cell were split twice a week [5*10^6 (Mon-Thu) and 1*10^7 (Thu-Mon) cells/50 ml medium in T-175 ZK culture flasks, respectively]. Prior to experiment, cells were seeded on 96 well plates (Cellstar 96 Well; Cat No. 655180, Greiner bio-one) at a density of 5*10^5 cells/well in DMEM/F12/Glutamax (Gibco) containing 10% FCS (Gibco), and incubated for 60 min at 37° C., 5% CO2. Subsequently, compounds were added and cells were allowed to incubate for 30 min at 37° C., 5% CO2. Cells were then stimulated with 15 μg/ml Phytohemagglutinin (PHA; Sigma) for 22 hours at 37° C., 5% CO2. Before sampling of the supernatants, cells were spun down (200*g/5 min/RT). The amount of IL-2 released into the supernatant was quantified with the human IL-2 AlphaLisa kit (Perkin Elmer) according to manufacturer's instructions. Luminescence proximity measurements were carried out in the Synergy H4 reader (BioTek) employing the fluorescence setting of the reader (ex: 680/30 nm; em: 620/40 nm). Inhibition of IL-production/release in/from Jurkat T cells was quantified as follows: Zero percent inhibition (MAX) was defined as the [IL-2] determined in supernatants derived from cells to which PHA & DMSO-only had been added instead of compound. Hundred percent inhibition (MIN) was defined as the [IL-2] determined in supernatants derived from cells that had been pre-treated with 1 μM CyclosporineA (Sigma) before the addition of 15 μg/ml PHA. For routine IC50 determinations of compounds, 8 concentrations of a serial dilution (1:3.16) were tested, starting off from 10 μM.

[2] = biological target: T1, CRAC channel (endogenous SOC in HEK293 cells) (Homo sapiens, UniProt Q96D31); test: HEK Calcium Influx Assay (FLIPR); type: cell-based
T1 construct: endogenous in cells; host or cells: HEK293 (ECACC)
T1 sequence (Q96D31 whole entry): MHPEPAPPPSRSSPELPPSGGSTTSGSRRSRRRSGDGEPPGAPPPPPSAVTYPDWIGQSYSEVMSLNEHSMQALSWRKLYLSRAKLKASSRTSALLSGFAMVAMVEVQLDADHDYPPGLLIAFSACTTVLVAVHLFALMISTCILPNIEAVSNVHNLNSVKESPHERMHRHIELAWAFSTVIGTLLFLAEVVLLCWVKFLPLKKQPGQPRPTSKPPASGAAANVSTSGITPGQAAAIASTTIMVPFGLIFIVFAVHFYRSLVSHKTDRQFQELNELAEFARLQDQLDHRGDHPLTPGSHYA
Procedure: The effect of compounds of the invention on intracellular [Ca^2+] was tested in the HEK293 cell line (ECACC). HEK293 cells were cultured in DMEM/F12/Glutamax (Gibco) containing 10% FCS (Gibco), and maintained at 37° C., 5% CO2. Cell were split twice a week [3*10^6 (Mon-Thu) and 1*10^6 (Thu-Mon) cells/50 ml medium in T-175 ZK culture flasks, respectively]. Twenty four hours pre-experiment, cells were seeded on 96 well plates (Poly-D-Lysine 96well Black/Clear Plate, BD Biocoat REF 356640) at a density of 40,000 cells/well in DMEM/F12 (Gibco) containing 10% FCS (Gibco), and maintained at 37° C., 5% CO2. Prior to store-depletion, cell culture medium was removed and cells were loaded with the a Calcium-sensitive fluorescent dye comprised within the Calcium-4-assay kit (Molecular Devices) in nominally Ca^2+-free HBS buffer (140 mM NaCl, 4 mM KCl, 0.2 mM MgCl2, 11 mM D-glucose, and 10 mM HEPES, pH 7.4) according to manufacturer's instruction for 60 min at 37° C., 5% CO2. Passive depletion of intracellular Ca^2+-stores was then triggered by employing the SERCA inhibitor thapsigargin (2 μM final) for 10 min in the dark (RT). To prevent immediate Ca^2+-entry via the activated Store-operated channels (SOCs), cells were maintained in Ca^2+-free HBS buffer comprising 100 μM EGTA during store-depletion. Intracellular changes in [Ca^2+] were subsequently monitored with the FLIPR device (Molecular Devices). In brief, baseline imaging post-store depletion was allowed for 1 min before adjusting the extracellular buffer to 3 mM CaCl2. Increases in intracellular [Ca^2+] due to pre-activated SOC channels were monitored for 15 min until intracellular Ca^2+ levels had declined into a steady-state. Finally, compounds were administered and Ca^2+ signals were recorded for additional 10 min. Inhibition of endogenous SOC in HEK293 cells was quantified employing the average Ca^2+ signal measured from 9.5-10 min post-administration. Zero percent inhibition (MAX) was defined as the Ca^2+ signal recorded from wells to which DMSO-only had been added instead of compound. Hundred percent inhibition (MIN) was defined as the signal obtained from wells in which cells haven't been treated with TG prior to Ca^2+ addition and to which DMSO-only had been added instead of compound. For routine IC50 determinations of compounds, 8 concentrations of a serial dilution (1:3.16) were tested, starting off from 10 μM. Reliable IC50's could consequently be determined only, if they were at least sub 2.5-3 μM.

[3] = numeric values of Table 2, read-out: inhib. [@ 10 μM] FLIPR
[4] = thapsigargin store depletion, read-out: % inhib. [@ 10 μM] FLIPR

Structure (SMILES) | IC50 [1] | inhibition at 10 µM [2, 3] | inhibition at 10 µM [2, 4]
CCOc1ccc(-c2cc(C(=O)Nc3c(F)cccc3F)nn2C)c(C)n1 [Example 5, N-(2,6-Difluoro-phenyl)-5-(6-ethoxy-2-methyl-pyridin-3-yl)-1-methyl-1H-pyrazole-3-carboxylic acid amide] | 1 to 5 µM |  | > 70%
CCc1cc(C)c(-c2cc(C(=O)Nc3c(F)cccc3F)nn2C)cn1 [Example 6, N-(2,6-Difluoro-phenyl)-5-(6-ethyl-4-methyl-pyridin-3-yl)-1-methyl-1H-pyrazole-3-carboxylic acid amide] | 1 to 5 µM | 67% | > 70%
Cc1cc(C2CC2)ncc1-c1cc(C(=O)Nc2c(F)cccc2F)nn1C [Example 8, 5-(6-Cyclopropyl-4-methyl-pyridin-3-yl)-N-(2,6-difluoro-phenyl)-1-methyl-1H-pyrazole-3-carboxylic acid amide] | 1 to 5 µM | 81% | > 70%
Cc1cc(OC2CC2)ncc1-c1cc(C(=O)Nc2c(F)cccc2F)nn1C [Example 10, 5-(6-Cyclopropyloxy-4-methyl-pyridin-3-yl)-N-(2,6-difluoro-phenyl)-1-methyl-1H-pyrazole-3-carboxylic acid amide] | 0.5 to 1 µM | 83% | > 70%
Cc1cc(OC(F)(F)F)ncc1-c1cc(C(=O)Nc2c(F)cccc2F)nn1C [Example 12, N-(2,6-Difluoro-phenyl)-1-methyl-5-[4-methyl-6-(trifluoromethyloxy)-pyridin-3-yl]-1H-pyrazole-3-carboxylic acid amide] | < 0.5 µM | 92% | > 70%
Cc1cc(OCC2CCC2)ncc1-c1cc(C(=O)Nc2c(F)cccc2F)nn1C [Example 18] | 1 to 5 µM |  | 
Cc1cc(COc2cc(C)c(-c3cc(C(=O)Nc4c(F)cccc4F)nn3C)cn2)no1 [Example 19, N-(2,6-Difluoro-phenyl)-1-methyl-5-[4-methyl-6-[(5-methyl-isoxazol-3-yl)-methoxy]-pyridin-3-yl]-1H-pyrazole-3-carboxylic acid amide] |  | 113% | > 70%
Cc1cc(C#N)ncc1-c1cc(C(=O)Nc2c(F)cccc2F)nn1C [Example 41, 5-(6-Cyano-4-methyl-pyridin-3-yl)-N-(2,6-difluoro-phenyl)-1-methyl-1H-pyrazole-3-carboxylic acid amide] |  |  | < 50%
COc1cc(C(F)(F)F)ncc1-c1cc(C(=O)Nc2c(F)cccc2F)nn1C [Example 42, N-(2,6-Difluoro-phenyl)-5-[4-methoxy-6-(trifluoromethyl)-pyridin-3-yl]-1-methyl-1H-pyrazole-3-carboxylic acid amide] | 0.5 to 1 µM |  | 
COc1cc(C2CC2)ncc1-c1cc(C(=O)Nc2c(F)cncc2F)nn1C [Example 53, 5-(6-Cyclopropyl-4-methoxy-pyridin-3-yl)-N-(3,5-difluoro-pyridin-4-yl)-1-methyl-1H-pyrazole-3-carboxylic acid amide] | 0.5 to 1 µM |  | 
COCc1cc(C)c(-c2cc(C(=O)Nc3c(F)cccc3F)nn2C)cn1 [Example 59, N-(2,6-Difluoro-phenyl)-5-[6-(methoxymethyl)-4-methyl-pyridin-3-yl]-1-methyl-1H-pyrazole-3-carboxylic acid amide] |  | 67% | 50 to 70%
COc1cc(O)ncc1-c1cc(C(=O)Nc2c(F)cccc2F)nn1C [Example 70, N-(2,6-Difluoro-phenyl)-5-(6-hydroxy-4-methoxy-pyridin-3-yl)-1-methyl-1H-pyrazole-3-carboxylic acid amide] |  |  | < 50%
Cn1nc(C(=O)Nc2c(F)cccc2F)cc1-c1nc(C(F)(F)F)ccc1C#N [Example 72, 5-[3-Cyano-6-(trifluoromethyl)-pyridin-2-yl]-N-(2,6-difluoro-phenyl)-1-methyl-1H-pyrazole-3-carboxylic acid amide] |  |  | < 50%
Cn1nc(C(=O)Nc2c(F)cccc2F)cc1-c1nc(C(C)(C)C)ccc1C#N [Example 73, 5-(6-tert-Butyl-3-cyano-pyridin-2-yl)-N-(2,6-difluoro-phenyl)-1-methyl-1H-pyrazole-3-carboxylic acid amide] |  |  | < 50%
COc1cc(N(C)C)c(-c2cc(C(=O)Nc3c(F)cccc3F)nn2C)cn1 [Example 75, N-(2,6-Difluoro-phenyl)-5-(4-dimethylamino-6-methoxy-pyridin-3-yl)-1-methyl-1H-pyrazole-3-carboxylic acid amide] | 1 to 5 µM |  | 

Second part, the molecule after the results:

IC50 [1] | inhibition at 10 µM [2, 3] | inhibition at 10 µM [2, 4] | Structure (SMILES)
0.5 to 1 µM | 95% | > 70% | CCOc1cc(C)c(-c2cc(C(=O)Nc3c(F)cncc3F)nn2C)cn1 [Example 2, N-(3,5-Difluoro-pyridin-4-yl)-5-(6-ethoxy-4-methyl-pyridin-3-yl)-1-methyl-1H-pyrazole-3-carboxylic acid amide]
1 to 5 µM | 61% | 50 to 70% | CCc1cc(C)c(-c2cc(C(=O)Nc3c(F)cncc3F)nn2C)cn1 [Example 7, N-(3,5-Difluoro-pyridin-4-yl)-5-(6-ethyl-4-methyl-pyridin-3-yl)-1-methyl-1H-pyrazole-3-carboxylic acid amide]
0.5 to 1 µM | 76% | > 70% | Cc1cc(OC2CC2)ncc1-c1cc(C(=O)Nc2c(F)cncc2F)nn1C [Example 9, 5-(6-Cyclopropyloxy-4-methyl-pyridin-3-yl)-N-(3,5-difluoro-pyridin-4-yl)-1-methyl-1H-pyrazole-3-carboxylic acid amide]
< 0.5 µM | 94% | > 70% | Cc1cc(OC(F)(F)F)ncc1-c1cc(C(=O)Nc2c(F)cncc2F)nn1C [Example 11, N-(3,5-Difluoro-pyridin-4-yl)-1-methyl-5-[4-methyl-6-(trifluoromethyloxy)-pyridin-3-yl]-1H-pyrazole-3-carboxylic acid amide]
0.5 to 1 µM |  |  | Cc1cc(OC(C)C)ncc1-c1cc(C(=O)Nc2c(F)cncc2F)nn1C [Example 52, N-(3,5-Difluoro-pyridin-4-yl)-5-(6-isopropoxy-4-methyl-pyridin-3-yl)-1-methyl-1H-pyrazole-3-carboxylic acid amide]
1 to 5 µM |  |  | COc1cc(C)c(-c2cc(C(=O)Nc3c(F)cccc3F)nn2C)cn1 [Example 58, N-(2,6-Difluoro-phenyl)-5-(6-methoxy-4-methyl-pyridin-3-yl)-1-methyl-1H-pyrazole-3-carboxylic acid amide]
 |  | < 50% | CCOc1cc(O)c(-c2cc(C(=O)Nc3c(F)cccc3F)nn2C)cn1 [Example 71, N-(2,6-Difluoro-phenyl)-5-(6-ethoxy-4-hydroxy-pyridin-3-yl)-1-methyl-1H-pyrazole-3-carboxylic acid amide]
